From patent US20050233984A1, “Composition for preventing or treating degenerative brain diseases comprising a hydrolysate of ginsenosides” (Digital Biotech Co., Ltd., priority 2002, published 2005)

Experiments:
[1] = Degree of BBB penetration: pharmacokinetics in blood and brain by LC-mass; format: in vivo, Sprague-Dawley rat; details: SD rat; for migration into the brain (in words): 1 mg/kg intravenous Rg1 or Rb1
Experimental: A male Sprague-Dawley rat (weight 250-300 g) was lightly anesthetized with ether and catheterized with a polyethylene tube (PE-50) in the femoral artery and vein. After the rat recovered, a saline solution containing 1 mg/kg of Rg1 or Rb1 was administered into the femoral vein through the intravenous bolus administration. 300 μl blood samples were collected from the rat's femoral artery at 2, 5, 10, 15, 20, 30, 45 and 60 minutes after the administration. Each blood sample was centrifuged to obtain 100 μl of plasma. A plasma sample was prepared as in (2) of step 1 with the plasma. 20 μl of the sample was injected into the LC mass system as in Step 1, and ginsenosides Rg1 and Rb1 and their metabolites PPD and PPT were quantified. The plasma concentrations of ginsenosides and their metabolites were calculated in the forms of weight per plasma (ml) (in case of ginsenosides) or peak size (in case of metabolites).
Immediately after collecting the blood samples, the rats were decapitated and brain tissues were obtained therefrom. The tissues were rinsed with ice-cooled saline, placed in a 15 ml Falcon tube and then weighed precisely. Acetonitrile was added to the tube in an amount twice the weight of the tissue sample, and the sample was homogenized using a tissue homogenizer (Ultra-Turrax T25, JANKE&KUNKEL IKA-Labortechnik). The mixture was centrifuged at 3,000 rpm for 20 minutes. 300 μl of the resulting supernatant was dried in a speed-vac, and 300 μl of acetonitrile was added thereto. 20 μl of the resulting mixture was injected in the LC mass system as in Step 1 to quantify the concentrations of ginsenosides and their metabolites in the brain, and the measured concentrations were represented by weight per gram of the brain tissue or peak size.
Separation and detection conditions for ginsenosides Rg1 and Rb1 were as described in Step 1, and those for metabolites PPD and PPT were as follows:
The transfer rate of the substances into the brain (Kbrain) can be represented by the ratio of the mean concentration of the substance in the brain (Cmean,brain) to the mean plasma concentration (Cmean,plasma) as in Equation 1. [formula]
The mean concentration of a substance can be determined by dividing the area under the concentration-time curve corresponding to time 0 to t by t and, accordingly, the transfer rate of the substance into the brain (Kbrain) can be calculated by Equation 2 shown below. [formula]

[2] = system: neuroblastoma B103 cell line; experiment: MTT test: preventing the toxicity of beta-amyloid; format: cell-based; details: B103 cells, beta-amyloid-only control = 100%
Experimental: In order to examine the activities of the compounds prepared in the Reference Example in preventing the toxicity of beta-amyloid, the MTT analysis (Gillardon, F. et al., Brain Research. No. 6: pp. 169-172 (1996)) was carried out as follows.
5×10^3 cells of neuroblastoma B103 cell line (donated by Dr. David Schubert of the Salk Institute, USA) were placed in each well of a 96-well plate with 100 μl of DMEM (Dulbecco's Minimal Eagle's Medium) containing 10% fetal bovine serum (FBS), and cultured at 37° C. under 8% CO2 for 1 day. […] The cells were cultured at 37° C. for 18 hours, treated with 15 μl of MTT solution [10 mg/ml solution of 3-(4,5-dimethyl-2-thiazolyl)-2,5-diphenyl-2H-tetrazolium bromide in phosphate buffered saline (PBS)], and allowed to react at 37° C. for 3 to 4 hours. 100 μl of lysis buffer (10% SDS, 50% dimethylformamide, pH 4.7) was added to the wells, and the cells were cultured overnight at room temperature and relative humidity of 90%. Optical density (OD) of each well was measured at […] and 630 nm, respectively, using a scanning multiwell spectrophotometer, and then the OD value at 630 nm was subtracted from that at 570 nm.
Setting the survival rate of the control group treated only with beta-amyloid as 100%, relative survival rates of the experimental groups treated with compound Y, ginsenosides Mc and Rc, PPD and PPT, respectively, were calculated, and the results are shown in Table 2 and FIG. 1. The obtained values were statistically significant.
When the same procedure as above was repeated except that the cells were treated simultaneously with the test compound and beta-amyloid, or treated with the test compound one hour after the beta-amyloid treatment, the results were almost the same as above.
Further, in order to assess the concentration-dependent activity of a test compound, the above procedure was repeated using PPT at concentrations ranging from […].

[3] = system: neuroblastoma B103 cell line; experiment: MTT test: apoptosis induced by staurosporin; format: cell-based; details: B103 cells, staurosporin-only control = 100%
Experimental: 5×10^3 cells of neuroblastoma B103 cell line (donated by Dr. David Schubert of the Salk Institute, USA) were placed in each well of a 96-well plate with 100 μl of DMEM (Dulbecco's Minimal Eagle's Medium) containing 10% fetal bovine serum (FBS), and cultured at 37° C. under 8% CO2 for 1 day. After changing the medium to serum-free DMEM, the cells were treated with various concentrations of test compounds and, 1 hour later, with 25 μM of beta-amyloid (25-35 peptide; US peptide, CA, USA). The cells were cultured at 37° C. for 18 hours, treated with 15 μl of MTT solution [10 mg/ml solution of 3-(4,5-dimethyl-2-thiazolyl)-2,5-diphenyl-2H-tetrazolium bromide in phosphate buffered saline (PBS)], and allowed to react at 37° C. for 3 to 4 hours. 100 μl of lysis buffer (10% SDS, 50% dimethylformamide, pH 4.7) was added to the wells, and the cells were cultured overnight at room temperature and relative humidity of 90%. Optical density (OD) of each well was measured at […] and 630 nm, respectively, using a scanning multiwell spectrophotometer, and then the OD value at 630 nm was subtracted from that at 570 nm.
Further, in order to examine whether compounds originating from ginseng can block apoptosis, […], and the survival rates of the neural cells were determined.

[4] = system: mice; experiment: Morris water maze test (spatial learning); format: in vivo; details: versus control group, FIG. 6
[5] = test compound 1 μM + 25 μM beta-amyloid (25-35), 18 hours
[6] = test compound 1 μM alone, without beta-amyloid
[7] = test compound 1 μM + 0.1 μM staurosporin
[8] = test compound 1 μM alone, without staurosporin

| SMILES | migration into the brain (in words) [1] | concentration in the brain as compared with that in the plasma ([1]; 1 mg/kg intravenous bolus, until 60 min., FIG. 11b) | concentration in the brain ([1]; 1 mg/kg intravenous bolus of the ginsenoside, FIG. 11a) | Survival rate (%) [2, 5] [%] | Survival rate (%) [2, 6] [%] | Survival rate (%) [3, 7] [%] | Survival rate (%) [3, 8] [%] | time to reach the platform [4] | Survival rate (%) ([2]; test compound 10 μM + 25 μM beta-amyloid (25-35), 18 hours) | Survival rate (%) ([2]; test compound 10 μM alone, without beta-amyloid) |
| --- | --- | --- | --- | --- | --- | --- | --- | --- | --- | --- |
| CC(C)=CCC[C@](C)(O[C@@H]1O[C@H](CO[C@@H]2O[C@H](CO)[C@@H](O)[C@H](O)[C@H]2O)[C@@H](O)[C@H](O)[C@H]1O)[C@H]1CC[C@]2(C)[C@@H]1[C@H](O)C[C@@H]1[C@@]3(C)CC[C@H](O[C@@H]4O[C@H](CO)[C@@H](O)[C@H](O)[C@H]4O[C@@H]4O[C@H](CO)[C@@H](O)[C@H](O)[C@H]4O)C(C)(C)[C@@H]3CC[C@]12C [ginsenoside Rb1, reference compound] | do not migrate into the brain | below 5.8% | – | – | – | – | – | – | – | – |
| CC(C)=CCC[C@](C)(O[C@@H]1O[C@H](CO)[C@@H](O)[C@H](O)[C@H]1O)[C@H]1CC[C@]2(C)[C@@H]1[C@H](O)C[C@@H]1[C@@]3(C)CC[C@H](O)C(C)(C)[C@@H]3[C@@H](O[C@@H]3O[C@H](CO)[C@@H](O)[C@H](O)[C@H]3O)C[C@]12C [ginsenoside Rg1, reference compound] | do not migrate into the brain | – | below the detectable level | – | – | – | – | – | – | – |
| CC(C)=CCC[C@](C)(O[C@@H]1O[C@H](CO[C@@H]2O[C@@H](CO)[C@H](O)[C@H]2O)[C@@H](O)[C@H](O)[C@H]1O)[C@H]1CC[C@]2(C)[C@@H]1[C@H](O)C[C@@H]1[C@@]3(C)CC[C@H](O)C(C)(C)[C@@H]3CC[C@]12C [Ginsenoside Mc] | – | – | – | 106.1 ± 2.4 | 148.0 ± 6.3 | 101.1 ± 2.7 | 178.6 ± 6.3 | much shorter time to reach the platform | – | – |
| CC(C)=CCC[C@](C)(O[C@@H]1O[C@H](CO[C@@H]2O[C@@H](CO)[C@H](O)[C@H]2O)[C@@H](O)[C@H](O)[C@H]1O)[C@H]1CC[C@]2(C)[C@@H]1[C@H](O)C[C@@H]1[C@@]3(C)CC[C@H](O[C@@H]4O[C@H](CO)[C@@H](O)[C@H](O)[C@H]4O[C@@H]4O[C@H](CO)[C@@H](O)[C@H](O)[C@H]4O)C(C)(C)[C@@H]3CC[C@]12C [Ginsenoside Rc] | – | – | – | 106.0 ± 0.9 | 161.0 ± 4.9 | 97.0 ± 4.8 | 191.4 ± 4.9 | much shorter time to reach the platform | 107.2 ± 1.9 | 126.7 ± 3.7 |
